Measurements reported in ChEMBL document CHEMBL1149112, “Predicting the cell differentiation activity of 1 alpha,25-dihydroxyvitamin D3 side chain analogues from docking simulations” (J Med Chem, 2004).

Legend:
[1] = molecular target: T1, Vitamin D3 receptor (Homo sapiens) (UniProt P11473); assay: Binding affinity against Vitamin D3 receptor with reference to compound 1
T1 sequence (whole entry): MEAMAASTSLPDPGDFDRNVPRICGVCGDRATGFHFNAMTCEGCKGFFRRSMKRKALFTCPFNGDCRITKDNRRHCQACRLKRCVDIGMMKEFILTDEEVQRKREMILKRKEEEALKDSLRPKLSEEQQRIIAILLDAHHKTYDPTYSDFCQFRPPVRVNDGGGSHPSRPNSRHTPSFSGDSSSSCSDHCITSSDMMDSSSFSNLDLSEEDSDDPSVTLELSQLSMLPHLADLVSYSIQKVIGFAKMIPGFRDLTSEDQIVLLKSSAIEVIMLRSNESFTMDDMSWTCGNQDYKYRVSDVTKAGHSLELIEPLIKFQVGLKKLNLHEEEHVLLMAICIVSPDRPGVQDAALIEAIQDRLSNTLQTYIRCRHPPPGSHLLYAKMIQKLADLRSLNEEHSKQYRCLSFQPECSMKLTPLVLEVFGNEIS

[2] = molecular target: T1, Vitamin D3 receptor (Homo sapiens); assay: Binding affinity for Vitamin D3 receptor compared to compound 1; value ranges from 5-10
[3] = molecular target: T1, Vitamin D3 receptor (Homo sapiens); assay: Binding affinity against Vitamin D3 receptor with reference to compound 1; value ranges from 15-30
[4] = molecular target: T1, Vitamin D3 receptor (Homo sapiens); assay: Binding affinity against Vitamin D3 receptor with reference to compound 1; value ranges from 2-5

| Compound | A/Ad [1] | further results |
| --- | --- | --- |
| C=C1/C(=C/C=C2/CCC[C@]3(C)[C@@H]([C@@H](C)CCCC(O)(CC)CC)CC[C@@H]23)C[C@@H](O)C[C@@H]1O | 100 | – |
| C=C1/C(=C/C=C2/CCC[C@]3(C)C(C(C)OCCC(C)(C)O)CC[C@@H]23)C[C@@H](O)C[C@@H]1O (single isomer, unassigned) | – | A/Ad [2]: 10 |
| C=C1/C(=C/C=C2/CCC[C@]3(C)[C@@H](C(C)COCC(C)(C)O)CC[C@@H]23)C[C@@H](O)C[C@@H]1O (some centres undefined) | 0.2 | – |
| C=C1/C(=C/C=C2/CCC[C@]3(C)[C@@H]([C@@H](C)CCCCC(O)(CC)CC)CC[C@@H]23)C[C@@H](O)C[C@@H]1O | 200 | – |
| C=C1/C(=C/C=C2/CCC[C@]3(C)[C@@H](C(C)OCCC(O)(CC)CC)CC[C@@H]23)C[C@@H](O)C[C@@H]1O (some centres undefined) | – | A/Ad [3]: 30 |
| C=C1/C(=C/C=C2/CCC[C@@]3(C)[C@H]2CC[C@H]3[C@@H](C)CCCCC(O)(CC)CC)C[C@@H](O)C[C@@H]1O | 5 | – |
| C=C1/C(=C/C=C2/CCC[C@]3(C)[C@@H]([C@H](C)CCCC(O)(CC)CC)CC[C@@H]23)C[C@@H](O)C[C@@H]1O | – | A/Ad [4]: 5 |
| C=C1/C(=C/C=C2/CCC[C@]3(C)C([C@H](C)OCCCC(O)(CC)CC)CC[C@@H]23)C[C@@H](O)C[C@@H]1O (single isomer, unassigned) | 20 | – |
| C=C1/C(=C/C=C2/CCC[C@]3(C)[C@@H]([C@@H](C)OCCCC(O)(CC)CC)CC[C@@H]23)C[C@@H](O)C[C@@H]1O | 200000 | – |
